11 compounds from patent US20240101566A1, “TRICYCLIC UBIQUITIN SPECIFIC PROTEASE 1 INHIBITOR AND USE THEREOF” (SHANDONG XUANZHU PHARMA CO., LTD., priority 2021, published 2024) can be followed below.

For assay [1], the system named is MDA-MB-436 cells. Nature of the assay: First in-vitro cytological inhibitory activity experiment (CelltiterGlo assay). The settings on record: Homo sapiens, MDA-MB-436, 168 h, Experimental Example 2, 4,000 cells/well, 7 days, read-out: In-vitro cytological activities, IC50, MDA-MB-436. It counts as cell-based, human. As to the method: Experimental Example 2 First Experiment of in-vitro Cytological Inhibitory Activities of Compounds of the Present Disclosure
A cell line used in the following experiment was as follows: MDA-MB-436: human breast cancer cells.
Experimental method (CelltiterGlo assay)
All cells were adherent cells, the medium was DMEM+10% FBS+1% ITS-G+16 μg/ml glutathione, and the cells were tested in a logarithmic growth phase.
(§1) Cells in the logarithmic growth phase were collected and counted by a […]. The cell viability was detected by a trypan blue exclusion method, and the cell viability was kept over 90%. The cell concentration was adjusted to be in a proper range, and 90 μL of cell suspension was added into a 96-well plate respectively.
(§2) 2.1 DMSO stock solutions of the test compounds were prepared, and concentrations of the stock solutions of the test compounds were 10 mM respectively.
The stock solutions of the test compounds were serially diluted from 10 mM with DMSO in a 3-fold gradient for a total of 8 concentrations. Then, 2 µL of DMSO-gradient diluted compounds were respectively added into 198 µL of culture solutions to give the working stock solutions of the test compounds (a compound concentration was 10-fold higher than the final concentration, and a maximum concentration was […]).
(§3) 10 μL of compound working stock solution was added into each well in the 96-well plate inoculated with cells (10-fold dilution, a final DMSO concentration was 0.1%).
Solvent control: 0.1% DMSO. […]
(§4) A CTG reagent was thawed and the 96-well plate was equilibrated to room temperature for 30 minutes, 60 μL of reagent (Celititer Glo assay kit) was added into each well, shaking was carried out for 2 minutes with a shaker (in the absence of light), and the plate was incubated at room temperature for 20 minutes (in the absence of light). Light signal values were read on a multi-functional microplate reader.
1) inhibition (%)=(DMSO solvent control well reading−test compound well reading)/(DMSO solvent control well reading−blank control well reading)×100%; […]
In general terms: ATP-based viability assays read luminescence as a measure of living cells.

In assay [2] the target is T1, Recombinant Human His6-USP1/His6-UAF1 Complex Protein (Homo sapiens (Human), UniProt O94782). Kind of assay: In-vitro enzymatic activity on USP1, first experimental method (Ub-Rho substrate, 15 min incubation). The settings on record: incubation at room temperature 15 minutes, read-out: Inhibitory activities on USP-1, IC50. Type of assay: biochemical. As to the method: Experimental Example 1 In-vitro Enzymatic Activities of Compounds of the Present Disclosure
First Experimental Method:
1) The compounds of the present disclosure were prepared to 10 mM with DMSO, and used as test stock solutions.
2) The stock solutions of the compounds of the present disclosure were diluted in a 4-fold gradient for 10 concentrations, with a maximum concentration of 10 mM.
3) The diluted compounds of the present disclosure were respectively transferred to 384-well plates (diluted by 1,000 folds) by Echo550, 2 multiple wells were set for each concentration, and a final concentration of DMSO was […].
(§5) 1) An enzyme solution was prepared in 1×test buffer.
(§6) 2) Ubiquitin Rhodamine 110 protein, CF (UB-Rho), was added into 1×determination buffer to prepare a substrate solution.
(§7) 3) 10 μL of enzyme solution and 1×reaction buffer were transferred to a 384-well plate, and
(§8) 4) incubated at room temperature for 15 minutes.
(§9) 5) 10 μL of substrate solution was added into each well to start the reaction, centrifuged for 30 seconds, and shaken for 30 seconds.
(§10) 1) Plate reading was carried out on SpectraMax Paradigm for 30 minutes, with an excitation wavelength of 480 nm and an emission wavelength of 540 nm.
2) Data on SpectraMax Paradigm were collected.
An inhibition (% inh) was calculated by the following formula:
(§11) [formula] • wherein, Max represented: a luminous signal intensity of a positive control well without adding the compound; • Min represented: a luminous signal intensity of a negative control well without adding the enzyme; and • Signal represented: a luminous signal intensity of the compound of the test sample.
IC50 was Calculated by the Following Formula:
(§12) [formula] • wherein, Y represented: % inhibition; and • X represented: the concentration of the compound.

The target of assay [3] is T1, Recombinant Human His6-USP1/His6-UAF1 Complex Protein. Kind of assay: In-vitro enzymatic activity on USP1, second experimental method (60 min incubation). The settings on record: incubation at room temperature 60 minutes, read-out: Inhibitory activities on USP-1, IC50. Type of assay: biochemical. As to the method:
as §5, §6, §7, §8, §9, §10, §11, §12
(§13) Second Experimental Method:
In the enzyme reaction experiment, the incubation time at room temperature in the step 4) was changed to 60 minutes, other conditions were the same as those in the first experimental method, and the following test results were obtained: […]

Assay [4] has as its system Caov-3 cells. Kind of assay: Second in-vitro cytological inhibitory activity experiment, first method (CelltiterGlo assay), Caov-3. Type of assay: cell-based. To be noted: Homo sapiens, Caov-3, 168 h, Experimental Example 3 first method, 2,000 cells/well, 7 days. As to the method: (§14) Experimental Example 3 Second Experiment of in-vitro Cytological Inhibitory Activities of Compounds of the Present Disclosure
(§15) Cell lines used in the following experiment were as follows: MDA-MB-436: human breast cancer cells; and Caov-3: Human ovarian cancer cells
(§16) First Experimental Method (CelltiterGlo Assay)
(§17) All cells were adherent cells, the MDA-MB-436 cell medium was DMEM+10% FBS+1% ITS-G+16 μg/ml glutathione, the Caov-3 cell medium was DMEM+10% FBS, and cells were tested in a logarithmic growth phase.
as §1, §2
(§18) The stock solutions of the test compounds were serially diluted from 10 mM with DMSO in a 3-fold gradient for a total of 8 concentrations. Then, 2 µL of DMSO-gradient diluted compounds were respectively added into 198 µL of culture solutions to give the working stock solutions of the test compounds (a compound concentration was 10-fold higher than the final concentration, and a maximum concentration was 100 μM).
as §3
(§19) Solvent control: 0.1% DMSO.
(§20) Blank control: 0 hour after dosing, the 96-well plate was detected and read.
(§21) 2.5 The 96-well plate was placed in a 5% CO2 cell incubator at 37° C. to culture for 7 days.
as §4
(§22) 1) inhibition (%)=(DMSO solvent control well reading−test compound well reading)/(DMSO solvent control well reading−blank control well reading)×100%;
(§23) 2) GraphPad Prism was input for drawing to obtain a curve and IC50.

Assay [5] has as its system MDA-MB-436 cells. Kind of assay: Second in-vitro cytological inhibitory activity experiment, first method (CelltiterGlo assay), MDA-MB-436. To be noted: Homo sapiens, MDA-MB-436, 168 h, Experimental Example 3 first method, 3,000 cells/well, 7 days, read-out: In-vitro cytological activities, IC50, MDA-MB-436. It counts as cell-based. As to the method: as §14, §15, §16, §17, §1, §2, §18, §3, §19, §20, §21, §4, §22, §23

In assay [6] the test system is MDA-MB-436 cells. Nature of the assay: Second in-vitro cytological inhibitory activity experiment, second method, MDA-MB-436. It counts as cell-based. The settings on record: Homo sapiens, Experimental Example 3 second method, 5 mM stock, 9 concentrations. As to the method:
as §13
(§24) The concentrations of the compound stock solutions prepared were 5 mM.
(§25) The stock solutions of the test compounds were serially diluted from 5 mM with DMSO in a 3-fold gradient for a total of 9 concentrations.

Assay [7] has as its system Caov-3 cells. Kind of assay: Second in-vitro cytological inhibitory activity experiment, second method, Caov-3. Type of assay: cell-based. To be noted: Homo sapiens, Experimental Example 3 second method, 5 mM stock, 9 concentrations. As to the method: as §13, §24, §25

SMILES strings stand for the structures.

T1 sequence (O94782 whole entry): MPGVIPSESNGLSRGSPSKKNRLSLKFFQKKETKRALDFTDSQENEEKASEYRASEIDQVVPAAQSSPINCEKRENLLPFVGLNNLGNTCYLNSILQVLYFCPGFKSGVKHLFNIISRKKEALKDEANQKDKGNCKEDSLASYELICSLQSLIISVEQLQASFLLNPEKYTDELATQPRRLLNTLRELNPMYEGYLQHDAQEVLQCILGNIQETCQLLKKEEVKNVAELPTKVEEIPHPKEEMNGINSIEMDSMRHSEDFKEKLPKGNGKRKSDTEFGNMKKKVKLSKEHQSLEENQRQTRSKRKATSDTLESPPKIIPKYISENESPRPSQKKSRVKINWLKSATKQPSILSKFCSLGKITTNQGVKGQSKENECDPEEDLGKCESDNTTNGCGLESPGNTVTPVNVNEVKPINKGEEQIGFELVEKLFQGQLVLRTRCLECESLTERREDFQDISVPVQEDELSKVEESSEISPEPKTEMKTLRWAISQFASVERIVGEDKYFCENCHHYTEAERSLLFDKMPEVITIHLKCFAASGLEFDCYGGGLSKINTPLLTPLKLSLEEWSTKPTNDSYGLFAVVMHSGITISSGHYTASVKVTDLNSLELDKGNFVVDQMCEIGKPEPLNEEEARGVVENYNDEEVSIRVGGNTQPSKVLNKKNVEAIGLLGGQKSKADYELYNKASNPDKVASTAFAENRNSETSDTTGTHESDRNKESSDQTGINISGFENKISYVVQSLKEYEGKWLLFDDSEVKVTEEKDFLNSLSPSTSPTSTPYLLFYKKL
T1 sequence (Q8TAF3 whole entry partner): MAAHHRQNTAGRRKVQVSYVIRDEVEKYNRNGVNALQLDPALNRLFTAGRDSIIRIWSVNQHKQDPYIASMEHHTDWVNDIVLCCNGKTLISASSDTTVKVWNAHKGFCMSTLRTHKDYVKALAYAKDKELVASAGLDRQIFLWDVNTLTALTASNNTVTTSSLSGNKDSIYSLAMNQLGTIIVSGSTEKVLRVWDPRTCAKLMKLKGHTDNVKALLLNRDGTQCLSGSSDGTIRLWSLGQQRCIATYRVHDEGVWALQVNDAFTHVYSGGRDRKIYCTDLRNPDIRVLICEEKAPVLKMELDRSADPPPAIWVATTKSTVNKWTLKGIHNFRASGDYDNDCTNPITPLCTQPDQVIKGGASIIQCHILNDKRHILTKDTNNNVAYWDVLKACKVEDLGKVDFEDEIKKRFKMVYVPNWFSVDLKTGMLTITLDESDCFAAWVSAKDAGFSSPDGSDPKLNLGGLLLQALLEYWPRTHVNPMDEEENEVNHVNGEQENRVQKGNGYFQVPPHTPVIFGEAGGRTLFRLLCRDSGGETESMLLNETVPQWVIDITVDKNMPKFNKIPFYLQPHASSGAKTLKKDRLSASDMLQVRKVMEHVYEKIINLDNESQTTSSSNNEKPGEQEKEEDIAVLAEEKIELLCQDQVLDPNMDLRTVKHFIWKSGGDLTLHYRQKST

In general, IC50 refers to the concentration that gives 50% inhibition. On to `COc1ncnc(C2CC2)c1-c1nc2c3c(nn(Cc4ccc(-c5nc(C(F)(F)F)cn5C)cc4)c3n1)CCC2` [Compound 1, 4-(4-cyclopropyl-6-methoxypyrimidine-5-yl)-2-(4-(1-methyl-4-(trifluoromethyl)-1H-imidazol-2-yl)benzyl)-2,6,7,8-tetrahydropyrazolo[3,4,5-de]quinazoline], for which the IC50 amounted to 0.068 µM in the assay on MDA-MB-436 cells [1] and 0.028 µM in assay [2].

With `[2H]C([2H])([2H])Oc1ncnc(C2CC2)c1-c1nc2c3c(nn(Cc4ccc(-c5nc(C(F)(F)F)cn5C)cc4)c3n1)CCC2` [Compound 1-1, 4-(4-cyclopropyl-6-(methoxy-d3)pyrimidin-5-yl)-2-(4-(1-methyl-4-(trifluoromethyl)-1H-imidazol-2-yl)benzyl)-2,6,7,8-tetrahydropyrazolo[3,4,5-de]quinazoline], the concentration for half-maximal inhibition (IC50) was 0.0129 µM in assay [3], 0.001 to 0.6 µM in the assay on Caov-3 cells [4] and 0.0424 µM in the assay on MDA-MB-436 cells [5].

In the case of `CC(C)c1c(F)cccc1-c1nc2c3c(nn(Cc4ccc(-c5nc(C(F)(F)F)cn5C)cc4)c3n1)CCC2` [Compound 2, 4-(3-fluoro-2-isopropylphenyl)-2-(4-(1-methyl-4-(trifluoromethyl)-1H-imidazol-2-yl)benzyl)-2,6,7,8-tetrahydropyrazolo[3,4,5-de]quinazoline], the IC50 with MDA-MB-436 cells [1] amounted to 0.0881 µM; in assay [2] it was 0.005 µM.

`Cc1cc(C(F)(F)F)nn1-c1ccc(Cn2nc3c4c(nc(-c5cccc(F)c5C(C)C)nc42)CCC3)cc1` [Compound 3, 4-(3-fluoro-2-isopropylphenyl)-2-(4-(5-methyl-3-(trifluoromethyl)-1H-pyrazol-1-yl)benzyl)-2,6,7,8-tetrahydropyrazolo[3,4,5-de]quinazoline]: the half-inhibitory concentration (IC50) in assay [2] was 0.018 µM.

Take `[2H]C([2H])([2H])Oc1ncnc(C2CC2)c1-c1nc2c3c(nn(Cc4ccc(-c5nc(C(F)(F)F)cn5C)cc4)c3n1)CCCC2` [Compound 11-1, 4-(4-cyclopropyl-6-(methoxy-d3)pyrimidin-5-yl)-2-(4-(1-methyl-4-(trifluoromethyl)-1H-imidazol-2-yl)benzyl)-6,7,8,9-tetrahydro-2H-1,2,3,5-tetraazabenzo[cd]azulene]: the half-inhibitory concentration (IC50) in assay [3] is 0.015 µM; in the assay with Caov-3 cells [4] it was 0.001 to 0.6 µM; with MDA-MB-436 cells [5], 0.122 µM.

Regarding `COc1ncnc(C2CC2)c1-c1nc2c3c(nn(Cc4ccc(-c5nc(C(F)(F)F)cn5C(C)C)cc4)c3n1)CCC2` [Compound 16, 4-(4-cyclopropyl-6-methoxypyrimidine-5-yl)-2-(4-(1-isopropyl-4-(trifluoromethyl)-1H-imidazol-2-yl)benzyl)-2,6,7,8-tetrahydropyrazolo[3,4,5-de]quinazoline], the half-inhibitory concentration (IC50) in assay [3] was 0.008 µM; with Caov-3 cells [4], 0.001 to 0.6 µM; in the assay with MDA-MB-436 cells [5] it was 0.0423 µM.

Turning to `[2H]C([2H])([2H])Oc1ncnc(C2CC2)c1-c1nc2c3c(nn(Cc4ccc(-c5nc(C(F)(F)F)cn5C(C)C)cc4)c3n1)CCC2` [Compound 16-1, 4-(4-cyclopropyl-6-(methoxy-d3)pyrimidin-5-yl)-2-(4-(1-isopropyl-4-(trifluoromethyl)-1H-imidazol-2-yl)benzyl)-2,6,7,8-tetrahydropyrazolo[3,4,5-de]quinazoline], the figures for the IC50 (in assay [3]; in the assay on Caov-3 cells [4]; in the assay on MDA-MB-436 cells [5]) were 0.00667 µM, 0.001 to 0.6 µM and 0.0553 µM, respectively.

Regarding `[2H]C([2H])([2H])Oc1ncnc(C2CC2)c1-c1nc2c3c(nn(Cc4ccc(-c5nc(C(F)(F)F)cn5C(C)C)cc4)c3n1)CCCC2` [Compound 17-1, 4-(4-cyclopropyl-6-(methoxy-d3)pyrimidin-5-yl)-2-(4-(1-isopropyl-4-(trifluoromethyl)-1H-imidazol-2-yl)benzyl)-6,7,8,9-tetrahydro-2H-1,2,3,5-tetraazabenzo[cd]azulene], the 50% inhibitory concentration (IC50) is 0.00666 µM in assay [3], 0.001 to 0.6 µM in the assay on Caov-3 cells [4] and 0.11 µM with MDA-MB-436 cells [5].

As to `Cc1cnn(C(C)C)c1-c1nc2c3c(nn(Cc4ccc(-c5nc(C(F)(F)F)cn5C)cc4)c3n1)CCC2` [Compound 18, 4-(1-isopropyl-4-methyl-1H-pyrazol-5-yl)-2-(4-(1-methyl-4-(trifluoromethyl)-1H-imidazol-2-yl)benzyl)-2,6,7,8-tetrahydropyrazolo[3,4,5-de]quinazoline], the IC50 was 0.00398 µM in assay [3], 0.001 to 0.6 µM in the assay with Caov-3 cells [4] and 0.0297 µM in the assay with MDA-MB-436 cells [5].

As for `Cc1cnn(C(C)C)c1-c1nc2c3c(nn(Cc4ccc(-c5nc(C(F)(F)F)cn5C(C)C)cc4)c3n1)CCC2` [Compound 19, 2-(4-(1-isopropyl-4-(trifluoromethyl)-1H-imidazol-2-yl)benzyl)-4-(1-isopropyl-4-methyl-1H-pyrazol-5-yl)-2,6,7,8-tetrahydropyrazolo[3,4,5-de]quinazoline], the 50% inhibitory concentration (IC50) in assay [3] was 0.00436 µM; in the assay with Caov-3 cells [4], 0.001 to 0.6 µM; in the assay on MDA-MB-436 cells [5], 0.0498 µM.

`Cn1cc(C(F)(F)F)nc1-c1ccc(Cn2nc3c4c(nc(-c5c(OC(F)F)ncnc5C5CC5)nc42)CCC3)cc1` [Compound 20, 4-(4-cyclopropyl-6-(difluoromethoxy)pyrimidin-5-yl)-2-(4-(1-methyl-4-(trifluoromethyl)-1H-imidazol-2-yl)benzyl)-2,6,7,8-tetrahydropyrazolo[3,4,5-de]quinazoline]: the 50% inhibitory concentration (IC50) is 0.0557 µM in the assay on MDA-MB-436 cells [6] and 0.001 to 0.1 µM in the assay on Caov-3 cells [7].
